These results are taken from ChEMBL document CHEMBL5303573, “Mapping human microbiome drug metabolism by gut bacteria and their genes” (Nature, 2019).

Data set [1] can be described thus: The drug is tested on Bifidobacterium breve strain: DSM20213 for biotransformation. The drug concentrations were measured before and after a 12-h incubation by liquid-chromatography-coupled mass spectrometry (LC–MS). To be noted: 2 µM.
The conditions of data set [2]: bacteroides thetaiotaomicron, 12 h, 2 µM.
Description: The drug is tested on Bacteroides thetaiotaomicron strain: VPI-5482 for biotransformation. The drug concentrations were measured before and after a 12-h incubation by liquid-chromatography-coupled mass spectrometry (LC–MS)
A short description of data set [3]: The drug is tested on Eubacterium hallii strain: DSM3353 for biotransformation. The drug concentrations were measured before and after a 12-h incubation by liquid-chromatography-coupled mass spectrometry (LC–MS). To be noted: anaerobutyricum hallii, 2 µM.
For data set [4] the following is noted: bacteroides thetaiotaomicron, 12 h, 2 µM. The source holds these as a separate data set.
Description: The drug is tested on Bacteroides thetaiotaomicron strain: 7330 for biotransformation. The drug concentrations were measured before and after a 12-h incubation by liquid-chromatography-coupled mass spectrometry (LC–MS)
Data set [5] is described as follows: The drug is tested on Bacteroides xylanisolvens strain: DSM18836 for biotransformation. The drug concentrations were measured before and after a 12-h incubation by liquid-chromatography-coupled mass spectrometry (LC–MS). The settings on record: 2 µM.
The nature of data set [6]: The drug is tested on Edwardsiella tarda strain: ATCC23685 for biotransformation. The drug concentrations were measured before and after a 12-h incubation by liquid-chromatography-coupled mass spectrometry (LC–MS). The settings on record: 2 µM.
Data set [7] in a line: The drug is tested on Clostridium ramosum strain: DSM1402 for biotransformation. The drug concentrations were measured before and after a 12-h incubation by liquid-chromatography-coupled mass spectrometry (LC–MS). To be noted: thomasclavelia ramosa, 2 µM.
For data set [8] the following is noted: bacteroides fragilis, 12 h, 2 µM.
Description: The drug is tested on Bacteroides fragilis strain: DS-208 for biotransformation. The drug concentrations were measured before and after a 12-h incubation by liquid-chromatography-coupled mass spectrometry (LC–MS)
The nature of data set [9]: The drug is tested on Collinsella aerofaciens strain: ATCC25986 for biotransformation. The drug concentrations were measured before and after a 12-h incubation by liquid-chromatography-coupled mass spectrometry (LC–MS). To be noted: 2 µM.
Data set [10] is described as follows: The drug is tested on Bacteroides coprophilus strain: DSM18228 for biotransformation. The drug concentrations were measured before and after a 12-h incubation by liquid-chromatography-coupled mass spectrometry (LC–MS). To be noted: 2 µM.
A short description of data set [11]: The drug is tested on Clostridium symbiosum strain: ATCC14940 for biotransformation. The drug concentrations were measured before and after a 12-h incubation by liquid-chromatography-coupled mass spectrometry (LC–MS). To be noted: 2 µM.
Data set [12] in a line: The drug is tested on Clostridium sporogenes strain: ATCC15579 for biotransformation. The drug concentrations were measured before and after a 12-h incubation by liquid-chromatography-coupled mass spectrometry (LC–MS). The settings on record: 2 µM.
Data set [13] can be described thus: The drug is tested on Bacteroides cellulosilyticus strain: DSM14838 for biotransformation. The drug concentrations were measured before and after a 12-h incubation by liquid-chromatography-coupled mass spectrometry (LC–MS). The settings on record: 2 µM.
The conditions of data set [14]: bacteroides fragilis, 12 h, 2 µM. The source holds these as a separate data set.
Description: The drug is tested on Bacteroides fragilis strain: 3397 (T10) for biotransformation. The drug concentrations were measured before and after a 12-h incubation by liquid-chromatography-coupled mass spectrometry (LC–MS)
Data set [15] in a line: The drug is tested on Bacteroides vulgatus strain: ATCC8482 for biotransformation. The drug concentrations were measured before and after a 12-h incubation by liquid-chromatography-coupled mass spectrometry (LC–MS). The settings on record: phocaeicola vulgatus, 2 µM.
Data set [16] is described as follows: The drug is tested on Eubacterium rectale strain: ATCC33656 for biotransformation. The drug concentrations were measured before and after a 12-h incubation by liquid-chromatography-coupled mass spectrometry (LC–MS). The settings on record: agathobacter rectalis, 2 µM.
The nature of data set [17]: The drug is tested on Bacteroides fragilis strain: HMW610 for biotransformation. The drug concentrations were measured before and after a 12-h incubation by liquid-chromatography-coupled mass spectrometry (LC–MS). To be noted: 2 µM.
Data set [18] can be described thus: The drug is tested on Bacteroides fragilis strain: ATCC43859 for biotransformation. The drug concentrations were measured before and after a 12-h incubation by liquid-chromatography-coupled mass spectrometry (LC–MS). The settings on record: 2 µM.

`CCN1CCCC1CNC(=O)c1cc(S(=O)(=O)CC)c(N)cc1OC` (stereo not given) [AMISULPRIDE]: the “Bacterial Biotransformation” value in [1], in data set [2], in data set [3], in data set [4], in data set [5] and in data set [6] was “Compound NOT metabolized” each time. In addition, the “Bacterial Biotransformation” value in data set [7], in [8], in data set [9], in data set [10], in [11] and in data set [12] was “Compound NOT metabolized” each time. In addition, the “Bacterial Biotransformation” value in data set [13], in data set [14], in data set [15] and in data set [16] was “Compound NOT metabolized” throughout.
In the case of `c1ccc([C@H]2CN3CCSC3=N2)cc1` [LEVAMISOLE], the “Bacterial Biotransformation” value in data set [1] is “Compound metabolized”; in data set [2], “Compound metabolized”; in data set [3], “Compound NOT metabolized”; in data set [4], “Compound metabolized”; in [5], “Compound metabolized”; in data set [17], “Compound metabolized”. Besides, the “Bacterial Biotransformation” value in data set [6], in [8], in data set [9], in data set [10], in [11] and in [12] was “Compound metabolized” each time. For the same molecule, the “Bacterial Biotransformation” value is on record as “Compound NOT metabolized” in data set [13]; “Compound metabolized” in [14]; “Compound metabolized” in data set [15]; “Compound metabolized” in [18]; “Compound NOT metabolized” in data set [16].
As to `CCCC(=O)Nc1ccc(OCC(O)CNC(C)C)c(C(C)=O)c1` (stereo not given) [ACEBUTOLOL], the “Bacterial Biotransformation” value in [1], in [2], in [3], in data set [4], in data set [5] and in data set [17] was “Compound NOT metabolized” throughout. Besides, the “Bacterial Biotransformation” value in [6], in data set [7], in data set [9], in [10], in data set [11] and in data set [12] was “Compound NOT metabolized” each time. Also, the “Bacterial Biotransformation” value in data set [13], in data set [14] and in [16] was “Compound NOT metabolized” each time.
On to `CCOC(=O)[C@H](CCc1ccccc1)N[C@@H](C)C(=O)N1[C@H](C(=O)O)C[C@H]2CCCC[C@@H]21` [TRANDOLAPRIL], for which the “Bacterial Biotransformation” value is recorded as “Compound metabolized” in data set [1]; “Compound NOT metabolized” in data set [3]; “Compound metabolized” in data set [5]; “Compound NOT metabolized” in data set [6]; “Compound NOT metabolized” in data set [7]; “Compound metabolized” in [8]. For the same molecule, the “Bacterial Biotransformation” value in data set [9] is “Compound NOT metabolized”; in data set [11] it was “Compound NOT metabolized”; in [12] it was “Compound metabolized”; in data set [13] it was “Compound metabolized”; in data set [14], “Compound metabolized”; in data set [15] it was “Compound metabolized”. The “Bacterial Biotransformation” value is listed as “Compound metabolized” in data set [18] and “Compound NOT metabolized” in [16].
On to `Clc1cccc(Cl)c1N=C1NCCN1` [CLONIDINE], for which the “Bacterial Biotransformation” value is recorded as “Compound NOT metabolized” in data set [1]; “Compound metabolized” in data set [2]; “Compound NOT metabolized” in [3]; “Compound metabolized” in data set [4]; “Compound NOT metabolized” in data set [5]; “Compound NOT metabolized” in data set [6]. Also, the “Bacterial Biotransformation” value was “Compound NOT metabolized” in [7]; “Compound metabolized” in [8]; “Compound NOT metabolized” in data set [9]; “Compound metabolized” in data set [10]; “Compound NOT metabolized” in [11]; “Compound NOT metabolized” in data set [12]. Further, the entries for the “Bacterial Biotransformation” value in data set [13], in [14] and in data set [16] were “Compound NOT metabolized”, “Compound metabolized” and “Compound NOT metabolized”, respectively.
As to `CC(C)NCC(O)COc1ccc(COCCOC(C)C)cc1.CC(C)NCC(O)COc1ccc(COCCOC(C)C)cc1.O=C(O)/C=C/C(=O)O` (stereo not given) [BISOPROLOL FUMARATE], the “Bacterial Biotransformation” value in [1], in [2], in data set [3], in data set [4], in data set [5] and in data set [17] was “Compound NOT metabolized” in each case. The “Bacterial Biotransformation” value in data set [6], in [7], in data set [8], in data set [9], in [10] and in data set [11] was “Compound NOT metabolized” in each case. The “Bacterial Biotransformation” value in [12], in [13], in [14], in [15], in data set [18] and in [16] was “Compound NOT metabolized” each time.
On to `CC(C)NCC(O)COc1ccc(CC(N)=O)cc1` (stereo not given) [ATENOLOL], for which the “Bacterial Biotransformation” value in data set [1], in [3], in [5], in [6], in data set [9] and in [11] was “Compound NOT metabolized” each time. For the same molecule, the “Bacterial Biotransformation” value in data set [12], in [13], in data set [15] and in data set [16] was “Compound NOT metabolized” each time.
